Assay results published in the RepoRT retention time repository (doi:10.1016/j.jchromb.2020.122105).
Each block holds one compound with its values, some of them ahead of it.

Assays:
Conditions in all cases: stereoisomer not certain
[1] = RP, Waters CORTECS T3, 100 × 2.1 mm, 2.7 µm, 0.15 mL/min, estimated dead time 1.5 min; A: water + 0.1% formic acid, pH 3; B: methanol + 0.1% formic acid, pH 3; gradient (min/%B) 0/0 1/0 6/5 30/100 35/100 35.1/0 40/0
[2] = RP, Waters CORTECS T3, 100 × 2.1 mm, 2.7 µm, 0.3 mL/min, estimated dead time 0.73 min; A: water + 0.1% formic acid, pH 3; B: methanol + 0.1% formic acid, pH 3; gradient (min/%B) 0/0 1/0 6/5 30/100 35/100 35.1/0 40/0
[3] = RP, Waters CORTECS T3, 100 × 2.1 mm, 2.7 µm, 0.1 mL/min, estimated dead time 2.2 min; A: water + 0.1% formic acid, pH 3; B: methanol + 0.1% formic acid, pH 3; gradient (min/%B) 0/0 1/0 6/5 30/100 35/100 35.1/0 40/0
[4] = RP, Waters CORTECS T3, 100 × 2.1 mm, 2.7 µm, 0.3 mL/min, estimated dead time 0.73 min; A: water + 0.1% formic acid, pH 3; B: methanol + 0.1% formic acid, pH 3; gradient (min/%B) 0/5 5/5 25/100 30/100 30.1/5 35/5
[5] = RP, Waters CORTECS T3, 100 × 2.1 mm, 2.7 µm, 0.3 mL/min, estimated dead time 0.73 min; A: water + 0.1% formic acid, pH 3; B: methanol + 0.1% formic acid, pH 3; gradient (min/%B) 0/0 5/0 25/100 30/100 30.1/0 35/0
[6] = RP, Thermo Scientific Hypercarb, 150 × 2.1 mm, 5 µm, 0.1 mL/min, estimated dead time 3.3 min; A: water + 0.1% formic acid, pH 3; B: methanol + 0.1% formic acid, pH 3; gradient (min/%B) 0/5 5/5 20/100 35/100 35.1/5 45/5
[7] = RP, Waters CORTECS T3, 100 × 2.1 mm, 2.7 µm, 0.3 mL/min, estimated dead time 0.73 min; A: water + 0.1% formic acid, pH 3; B: methanol + 0.1% formic acid, pH 3; gradient (min/%B) 0/5 5/5 25/95 25.1/100 35/100 35.1/5 45/5
[8] = RP, Waters CORTECS T3, 100 × 2.1 mm, 2.7 µm, 0.25 mL/min, estimated dead time 0.88 min; A: water + 0.1% formic acid, pH 3; B: methanol + 0.1% formic acid, pH 3; gradient (min/%B) 0/0 1/0 6/5 30/100 35/100 35.1/0 40/0
[9] = RP, Waters CORTECS T3, 100 × 2.1 mm, 2.7 µm, 0.1 mL/min, estimated dead time 2.2 min; A: water + 0.1% formic acid, pH 3; B: methanol + 0.1% formic acid, pH 3; gradient (min/%B) 0/5 5/5 25/95 25.1/100 35/100 35.1/5 45/5
[10] = RP, Waters ACQUITY UPLC BEH C18, 100 × 2.1 mm, 1.7 µm, 0.2 mL/min, estimated dead time 1.1 min; A: water + 0.025% formic acid + 20 mM ammonium acetate + 0.055% ammonium hydroxide, pH 7; B: methanol; gradient (min/%B) 0/5 5/5 25/100 30/100 30.1/5 35/5
[11] = RP, Waters ACQUITY UPLC BEH C18, 100 × 2.1 mm, 1.7 µm, 0.1 mL/min, estimated dead time 2.2 min; A: water + 0.1% formic acid, pH 3; B: methanol + 0.1% formic acid, pH 3; gradient (min/%B) 0/5 5/5 25/100 30/100 30.1/5 35/5
[12] = RP, Waters CORTECS T3, 100 × 2.1 mm, 2.7 µm, 0.2 mL/min, estimated dead time 1.1 min; A: water + 0.045% formic acid + 0.11% ammonium hydroxide, pH 7; B: methanol; gradient (min/%B) 0/5 5/5 25/95 25.1/100 35/100 35.1/5 45/5
[13] = RP, Waters CORTECS T3, 100 × 2.1 mm, 2.7 µm, 0.2 mL/min, estimated dead time 1.1 min; A: water + 0.1% formic acid, pH 3; B: methanol + 0.1% formic acid, pH 3; gradient (min/%B) 0/0 1/0 6/5 30/100 35/100 35.1/0 40/0
[14] = RP, Waters CORTECS T3, 100 × 2.1 mm, 2.7 µm, 0.25 mL/min, estimated dead time 0.88 min; A: water + 0.1% formic acid, pH 3; B: methanol + 0.1% formic acid, pH 3; gradient (min/%B) 0/5 5/5 25/95 25.1/100 35/100 35.1/5 45/5
[15] = RP, Waters CORTECS T3, 100 × 2.1 mm, 2.7 µm, 0.3 mL/min, estimated dead time 0.73 min; A: water + 0.1% formic acid, pH 3; B: methanol + 0.1% formic acid, pH 3; gradient (min/%B) 0/0 1/0 6/5 30/100 35/100 35.1/0 40/0; remark: listed apart in the source
[16] = RP, Waters CORTECS T3, 100 × 2.1 mm, 2.7 µm, 0.2 mL/min, estimated dead time 1.1 min; A: water + 0.1% formic acid, pH 3; B: methanol + 0.1% formic acid, pH 3; gradient (min/%B) 0/0 1/0 6/5 30/100 35/100 35.1/0 40/0; remark: listed apart in the source
[17] = HILIC, Waters XBridge BEH Amide, 100 × 2.1 mm, 2.5 µm, 0.5 mL/min, estimated dead time 0.44 min; A: water + 0.1% acetic acid + 10 mM ammonium acetate, pH 4; B: 5% water + 95% acetonitrile + 0.1% acetic acid + 10 mM ammonium acetate, pH 4; gradient (min/%B) 0/95 5/95 20/57 25/57 30/95 40/95
[18] = RP, Waters CORTECS T3, 100 × 2.1 mm, 2.7 µm, 0.2 mL/min, estimated dead time 1.1 min; A: water + 0.1% formic acid, pH 3; B: methanol + 0.1% formic acid, pH 3; gradient (min/%B) 0/5 5/5 25/95 25.1/100 35/100 35.1/5 45/5
[19] = HILIC, Merck SeQuant ZIC-HILIC, 150 × 2.1 mm, 5 µm, 0.75 mL/min, estimated dead time 0.44 min; A: water + 0.1% acetic acid + 10 mM ammonium acetate, pH 4; B: 5% water + 95% acetonitrile + 0.1% acetic acid + 10 mM ammonium acetate, pH 4; gradient (min/%B) 0/95 5/95 20/57 25/57 30/95 40/95
[20] = RP, Waters ACQUITY UPLC BEH C18, 100 × 2.1 mm, 1.7 µm, 0.2 mL/min, estimated dead time 1.1 min; A: water + 0.025% formic acid + 20 mM ammonium acetate + 0.055% ammonium hydroxide, pH 7; B: methanol; gradient (min/%B) 0/5 5/5 25/100 30/100 30.1/5 35/5; remark: listed apart in the source
[21] = RP, Waters ACQUITY UPLC BEH C18, 100 × 2.1 mm, 1.7 µm, 0.2 mL/min, estimated dead time 1.1 min; A: water + 0.1% formic acid, pH 3; B: methanol + 0.1% formic acid, pH 3; gradient (min/%B) 0/5 5/5 25/100 30/100 30.1/5 35/5
[22] = RP, Waters CORTECS T3, 100 × 2.1 mm, 2.7 µm, 0.3 mL/min, estimated dead time 0.73 min; A: water + 0.1% formic acid, pH 3; B: methanol + 0.1% formic acid, pH 3; gradient (min/%B) 0/0 5/0 25/100 30/100 30.1/0 35/0; remark: listed apart in the source
[23] = RP, Waters ACQUITY UPLC BEH C18, 100 × 2.1 mm, 1.7 µm, 0.1 mL/min, estimated dead time 2.2 min; A: water + 0.045% formic acid + 0.11% ammonium hydroxide, pH 7; B: methanol; gradient (min/%B) 0/5 5/5 25/95 25.1/100 35/100 35.1/5 45/5

SMILES: Nc1cccc2ccccc12 [1-NAPHTHYLAMINE]
- LC retention time [1]: 15.2 min
- LC retention time [2]: 11.8 min
- LC retention time [3]: 12.1 min
- LC retention time [4]: 10.2 min
- LC retention time [5]: 11.5 min
- LC retention time [6]: 30.6 min
- LC retention time [7]: 10.3 min
- LC retention time [8]: 12.6 min
- LC retention time [9]: 16.1 min
- LC retention time [10]: 14.7 min
- LC retention time [11]: 16.5 min
- LC retention time [12]: 14.5 min
- LC retention time [13]: 13.5 min

- LC retention time [14]: 1.08 min
- LC retention time [15]: 0.92 min
- LC retention time [16]: 1.35 min
- LC retention time [17]: 13.3 min
- LC retention time [18]: 2.67 min
SMILES: O=c1ccn(C2CC(O)C(COP(=O)(O)O)O2)c(=O)[nH]1 (stereo not drawn) [2'-DEOXYURIDINE 5'-MONOPHOSPHATE]

- LC retention time [19]: 1.46 min
- LC retention time [17]: 1.7 min
- LC retention time [11]: 5.19 min
SMILES: O=c1[nH]c(=O)c2nccnc2[nH]1 [2,4-DIHYDROXYPTERIDINE]

- LC retention time [20]: 8.78 min
SMILES: CC(C)=CC(=O)SCCNC(=O)CCNC(=O)C(O)C(C)(C)COP(=O)(O)OP(=O)(O)OCC1OC(n2cnc3c(N)ncnc32)C(O)C1OP(=O)(O)O (stereo not drawn) [3-METHYLCROTONYL-COA]

- LC retention time [14]: 1.06 min
- LC retention time [15]: 0.9 min
- LC retention time [21]: 1.41 min
SMILES: O=c1[nH]cc(CO)c(=O)[nH]1 [5-HYDROXYMETHYLURACIL]

SMILES: O=C(O)CCCCCCCCCO [10-HYDROXYDECANOATE]
- LC retention time [19]: 1.13 min
- LC retention time [14]: 17.7 min
- LC retention time [21]: 18.3 min
- LC retention time [22]: 17.3 min

- LC retention time [14]: 1.08 min
- LC retention time [15]: 0.92 min
- LC retention time [21]: 1.56 min
- LC retention time [16]: 1.35 min
- LC retention time [22]: 0.89 min
SMILES: Nc1ncnc2c1ncn2C1OC(COP(=O)(O)OP(=O)(O)OC2OC(CO)C(O)C(O)C2O)C(O)C1O (stereo not drawn) [ADENOSINE 5'-DIPHOSPHOGLUCOSE]

- LC retention time [15]: 12.1 min
SMILES: Cc1cc2nc3c(=O)[nH]c(=O)nc-3n(CC(O)C(O)C(O)COP(=O)(O)OP(=O)(O)OCC3OC(n4cnc5c(N)ncnc54)C(O)C3O)c2cc1C (stereo not drawn) [FLAVIN ADENINE DINUCLEOTIDE]

- LC retention time [6]: 4.86 min
- LC retention time [20]: 1.41 min
- LC retention time [17]: 15 min
- LC retention time [10]: 1.42 min
- LC retention time [18]: 2.43 min
SMILES: Cn1cncc1CC(NC(=O)CCN)C(=O)O [L-ANSERINE]

- LC retention time [19]: 12.9 min
- LC retention time [6]: 4.84 min
- LC retention time [17]: 13 min
- LC retention time [18]: 2.48 min
SMILES: NC(=O)CC[C@H](N)C(=O)O [L-GLUTAMINE]

- LC retention time [6]: 4.68 min
- LC retention time [17]: 11.4 min
- LC retention time [10]: 1.79 min
- LC retention time [12]: 1.54 min
- LC retention time [23]: 3.33 min
SMILES: N[C@H](CO)Cc1cnc[nH]1 [L-HISTIDINOL]

- LC retention time [19]: 5.01 min
- LC retention time [17]: 4.84 min
SMILES: COC1OC(CO)C(O)C(O)C1O [METHYL BETA-D-GALACTOSIDE]

- LC retention time [14]: 1.11 min
- LC retention time [15]: 0.95 min
- LC retention time [21]: 1.46 min
- LC retention time [17]: 11.2 min
SMILES: CC(=O)NCC(=O)O [N-ACETYLGLYCINE]

- LC retention time [1]: 1.78 min
- LC retention time [5]: 0.89 min
- LC retention time [6]: 12.7 min
- LC retention time [17]: 14.5 min
SMILES: NC(N)=N[C@@H](CC(=O)O)C(=O)O [N-AMIDINO-L-ASPARTATE]

- LC retention time [22]: 0.91 min
SMILES: O=CNCC(=O)O [N-FORMYLGLYCINE]

SMILES: CNCCc1c[nH]c2ccccc12 [N-METHYLTRYPTAMINE]
- LC retention time [1]: 12.5 min
- LC retention time [2]: 9.8 min
- LC retention time [3]: 9.68 min
- LC retention time [4]: 8.14 min
- LC retention time [5]: 9.75 min
- LC retention time [7]: 8.19 min
- LC retention time [8]: 10.4 min
- LC retention time [9]: 13.1 min
- LC retention time [10]: 11.1 min
- LC retention time [11]: 13.3 min
- LC retention time [12]: 10.7 min
- LC retention time [13]: 11.2 min
- LC retention time [23]: 14.4 min

- LC retention time [14]: 1.08 min
- LC retention time [15]: 0.92 min
- LC retention time [16]: 1.35 min
- LC retention time [22]: 0.93 min
- LC retention time [18]: 2.67 min
SMILES: O=c1[nH]c(=O)c2ncn(C3OC(COP(=O)(O)O)C(O)C3O)c2[nH]1 (stereo not drawn) [XANTHOSINE 5'-MONOPHOSPHATE]
